Data reported in patent publication US9403808B2, “Pyrazine derivatives” (Hoffmann-La Roche Inc., priority 2011, dated 2016).
pEC50: −log10 of the molar value.

Tests used:
human CB2 receptors = human CB2 receptors (Homo sapiens (Human), UniProt P34972); experiment: functional cAMP assay, CB2; format: cell-based; conditions: functional cAMP assay, CHO cells expressing human CB2; read-out: human CB2 EC50
Method in brief: (§1)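 CHO cells expressing human CB1 or CB2 were preincubated 30 min at 30 °C in Krebs Ringer bicarbonate buffer with 1 mM IBMX, then exposed to compound for 30 min at 30 °C. cAMP was measured by TR-FRET (cAMP-Nano-TRF) against a 10 μM–0.13 nM cAMP standard curve, and EC50 values were derived.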

human CB1 receptors = human CB1 receptors (Homo sapiens (Human), UniProt P21554); experiment: functional cAMP assay, CB1; format: cell-based; conditions: functional cAMP assay, CHO cells expressing human CB1; read-out: human CB1 EC50
Method in brief: as §1

Sequence of human CB2 receptors (P34972 whole entry): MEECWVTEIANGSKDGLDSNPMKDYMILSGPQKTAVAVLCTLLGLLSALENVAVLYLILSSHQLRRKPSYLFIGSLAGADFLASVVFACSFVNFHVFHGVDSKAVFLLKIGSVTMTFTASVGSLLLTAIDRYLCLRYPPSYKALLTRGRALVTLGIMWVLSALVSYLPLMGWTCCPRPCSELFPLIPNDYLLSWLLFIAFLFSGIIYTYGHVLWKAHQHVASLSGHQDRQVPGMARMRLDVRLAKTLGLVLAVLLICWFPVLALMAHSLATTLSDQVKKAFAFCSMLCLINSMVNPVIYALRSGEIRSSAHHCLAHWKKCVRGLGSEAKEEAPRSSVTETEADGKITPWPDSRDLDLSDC
Sequence of human CB1 receptors (P21554 whole entry): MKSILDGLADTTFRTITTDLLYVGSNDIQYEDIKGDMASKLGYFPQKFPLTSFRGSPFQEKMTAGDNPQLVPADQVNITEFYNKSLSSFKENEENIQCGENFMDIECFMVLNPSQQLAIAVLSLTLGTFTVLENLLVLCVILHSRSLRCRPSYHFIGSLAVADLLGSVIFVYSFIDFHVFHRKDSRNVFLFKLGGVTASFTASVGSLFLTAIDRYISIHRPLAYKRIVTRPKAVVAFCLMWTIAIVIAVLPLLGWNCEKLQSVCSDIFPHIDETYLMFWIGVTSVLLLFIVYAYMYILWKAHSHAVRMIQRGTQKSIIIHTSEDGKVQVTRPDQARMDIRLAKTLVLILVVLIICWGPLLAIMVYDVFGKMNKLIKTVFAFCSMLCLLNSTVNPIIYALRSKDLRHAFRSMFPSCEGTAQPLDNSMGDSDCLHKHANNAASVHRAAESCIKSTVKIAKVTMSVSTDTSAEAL

Compound | pEC50 (human CB2 receptors) | pEC50 (human CB1 receptors)
O=C(NC(CO)CC1CCC1)c1cnc(C2CC2)c(OCC2CC2)n1 (stereo not drawn) [Example 105, 5-Cyclopropyl-6-cyclopropylmethoxy-pyrazine-2-carboxylic acid (1-cyclobutylmethyl-2-hydroxy-ethyl)-amide] | 7.43 | < 5.00
CC(C)(CC(N)=O)NC(=O)c1cnc(C2CC2)c(OCC2CC2)n1 [Example 106] | 7.36 | < 5.00
CC(C)(CC(N)=O)NC(=O)c1cnc(N2CC(F)(F)C2)c(OCC2CC2)n1 [Example 107, 6-Cyclopropylmethoxy-5-(3,3-difluoro-azetidin-1-yl)-pyrazine-2-carboxylic acid (2-carbamoyl-1,1-dimethyl-ethyl)-amide] | 7.93 | 6.06
